Measurements as given in patent US8410056B2, “Pro-oxidant anti-cancer compounds” (priority 2006, dated 2013).

Tests used:
[1] = test system: MDA-MB-453, MCF-7 and NeuTL breast cancer cells; assay: ATP bioluminescence assay; format: cell-based, human; murine; conditions: 6 or 24 h; normoxia or hypoxia
Experimental: (§1) Cell culture and treatment. […] Cells were cultured in DMEM with 10% FCS, 100 U/ml penicillin and 100 μg/ml streptomycin at 37° C. in a humidified atmosphere of 5% CO2. Mitochondrial complex I-deficient (Breen and Scheffler 1979; DeFrancesco et al 1976; Scheffler et al 2004) and complex II-deficient cells (Albayrak et al 2003; Oostveen et al 1995) were grown in DMEM with 10% FCS, […] glucose and non-essential amino acids.
(§2) At approximately 70% confluency, cells were treated with up to 50 μM α-TOS (Sigma), up to 100 μM 3-BP (Aldrich) or 30 ng/ml of human recombinant tumor necrosis factor-related apoptosis—inducing ligand (TRAIL) (Weber et al, 2002) under normoxic or hypoxic conditions. For hypoxia, cells overlaid with nitrogen-purged medium were placed in a hypoxic chamber pre-flushed extensively with nitrogen. The hypoxic chamber with cells was then placed in the incubator as required. α-TOS was dissolved in ethanol and used such that the final ethanol concentration in cell culture medium was <0.1% (v/v). Stock solutions of 3-BP were prepared in PBS prior to use.
ATP measurement. MDA-MB-453 and NeuTL cells were seeded at 2×10^5 per ml and MCF-7 cells at 1.2×10^5 per ml into 96-well tissue culture microtitre plates and allowed to recover overnight before use. Cells were incubated for 6 or 24 h with α-TOS or 3-BP under normoxia or hypoxia as described above. ATP levels were then measured using an ATP bioluminescence assay kit HSII (Roche Applied Science) according to the manufacturer's instructions. Briefly, control or treated cells were transferred into black microtitre plates after incubation for 5 min at room temperature with the cell lysis reagent. Luciferase reagent was added and the signal detected immediately using a Fluorostar Optima plate reader (BMG Labtech). Triplicate wells were read for each condition and data evaluated using a standard calibration curve prepared with known concentrations of ATP.

MCF-7 cells = assay: Apoptosis, annexin V-FITC method; format: cell-based, human
Experimental: as §1, §2
Apoptosis assessment. Apoptosis was quantified using the annexin V-FITC method, which detects phosphatidyl serine externalized in the early phases of apoptosis (Boersma et al, 1996). Briefly, cells were plated at 10^5 per well in 24-well plates and, after an overnight recuperation, treated with α-TOS or 3-BP alone or in combination. Floating and attached cells were harvested, washed with PBS, resuspended in 0.2 ml binding buffer (10 mM Hepes, 140 mM NaCl, 5 mM CaCl2, pH 7.4), incubated for 30 min at 4° C. with 2 μl annexin V-FITC (PharMingen), supplemented with 200 μl of 50 μg/ml propidium iodide (PI; Sigma), and analyzed by flow cytometry (FACScalibur, Becton Dickinson) using channel 1 for annexin V-FITC binding and channel 2 for PI staining. Cell death was quantified as the percentage of cells with increased annexin V binding and PI staining. […]

[2] = test system: NADH dehydrogenase (complex I); assay: Complex I (NADH dehydrogenase) activity; format: biochemical; conditions: data not shown
Experimental: Measurement of mitochondrial complex II and complex I activity. A time course for the reduction of the complex II substrate 2,6-dichlorophenol indophenol (DCIP) by the mitochondrial preparations was followed by measuring the absorbance at 600 nm in 1 cm cuvettes containing a 1 ml reaction volume (ε600=21×10^3 M^−1cm^−1). The reaction components included NADH, 0.5 mM; succinate, 5 mM; KCN, 10 mM; DCIP, 50 μM; PMS, 50 μM. For each assay point, 0.5 mg sample protein was used and α-TOS was added at either 100 or 300 μM as indicated. The change in absorbance of DCIP was measured using a spectrophotometer (UVIKON XL, Secomam) and replicate samples were assayed (n=3). When measuring the complex I (NADH dehydrogenase activity), PMS was omitted. […]
Additional support for the role of α-TOS in inhibiting mitochondrial respiratory complex II activity was sought by isolating subcellular fractions containing mitochondrial preparations from rat liver as well as membranous fractions from P. denitrificans. For these studies, the assay method of SDH/Complex II activity was based on that of King (1967) using phenazine methosulphate (PMS) and the terminal electron acceptor, 2,6-dichloroindophenol (DCIP) as the indicator dye by following the decrease in absorbance at 600 nm as it was reduced by SDH driven under conditions of high succinate. […]

MCF-7 tumors = assay: MCF-7 xenograft in nude mice; format: in vivo; conditions: 10 μmoles i.p. every 3 d
[3] = test system: Jurkat, HBT11, MCF7, MCF7-C3; conditions: Birringer et al, cited from earlier work
[4] = cited from earlier work

Cc1c(C)c2c(c(C)c1OC(=O)CCC(=O)O)CC[C@@](C)(CCC[C@H](C)CCC[C@H](C)CCCC(C)C)O2 [Compound 1, α-tocopheryl succinate]
cellular ATP levels [1]: only significantly reduced cellular ATP levels when applied at the higher concentration of 50 μM | apoptosis after CybL siRNA (MCF-7 cells; MCF7 cells treated with siRNA against CybL): reduced the levels of apoptosis mediated by α-TOS | apoptosis (MCF-7 cells; MCF-7 (erbB2-low), 24 h, normoxia or hypoxia): sensitive to apoptosis induced by α-TOS under both normoxia and hypoxia | NADH dehydrogenase (complex I) activity [2]: no effect | tumor growth (MCF-7 tumors): repressed the growth of tumors in the treated group of mice with an overall reduction in tumor size | pro-apoptotic activity ([3]; compared with α-TOS and isomers): highest apoptogenic activity | IC50 ([3]; Jurkat, HBT11, MCF7, MCF7-C3, 2003): 43 µM | pKa [4]: < 6
